Experimental data: paper PMC6411751, “Use of machine learning to identify novel, behaviorally active antagonists of the insect odorant receptor co-receptor (Orco) subunit” (Scientific Reports, 2019)

molecular target: T1, Agam\Orco (Anopheles gambiae, UniProt Q7QCC7); assay: cell-based; type: cell-based; conditions: not given
T1 construct: expressed in transfected cells; host or cells: Xenopus laevis oocytes injected with capped cRNA (plasmid pT7TS, gift of L. Zwiebel)
T1 sequence (Q7QCC7 1-478): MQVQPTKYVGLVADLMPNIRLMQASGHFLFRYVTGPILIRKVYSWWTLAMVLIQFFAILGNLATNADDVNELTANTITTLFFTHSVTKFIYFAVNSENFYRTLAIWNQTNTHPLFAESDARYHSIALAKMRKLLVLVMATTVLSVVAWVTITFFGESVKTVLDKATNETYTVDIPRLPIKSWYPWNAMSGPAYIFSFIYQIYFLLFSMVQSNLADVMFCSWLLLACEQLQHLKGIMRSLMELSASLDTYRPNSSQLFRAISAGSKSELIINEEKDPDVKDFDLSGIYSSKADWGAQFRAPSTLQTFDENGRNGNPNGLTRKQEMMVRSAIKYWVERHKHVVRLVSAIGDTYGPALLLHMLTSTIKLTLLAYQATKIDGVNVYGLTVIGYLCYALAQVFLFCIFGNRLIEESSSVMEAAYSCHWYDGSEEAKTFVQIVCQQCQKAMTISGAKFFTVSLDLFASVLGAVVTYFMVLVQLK
Method: A 2 hr incubation with collagenase B (Roche) was used to remove follicle cells from oocytes. Capped cRNA for Agam\Orco was synthesized using mMessage mMachine kits (Thermo Fisher Scientific). 25 ng of cRNA was injected into stage V–VI oocytes, followed by a 2–5 day incubation at 18 °C in Barth’s saline (in mM: 88 NaCl, 1 KCl, 2.4 NaHCO3, 0.3 CaNO3, 0.41 CaCl2, 0.82 MgSO4, 15 HEPES, pH 7.4, and 0.05 g/L tetracycline, 0.05 g/L ciprofloxacin, 0.1 g/L amikacin) prior to electrophysiological recordings.
An automated parallel electrophysiology system (OpusExpress 6000 A, Molecular Devices) was used to record Orco agonist (OLC12) or odorant induced currents under two-electrode voltage clamp. Oocytes were perfused with ND96 (in mM: 96 NaCl, 2 KCl, 1 CaCl2, 1 MgCl2, 5 HEPES, pH 7.4). DMSO was used to prepare 1 M or 100 mM stock solutions of test compounds, which were then diluted in ND96 on the day of the experiment. Compounds were applied at a flow rate of 1.0 mL/min, with extensive washing in ND96 at 4.6 mL/min between applications. Micropipettes with resistances of 0.2–2.0 MΩ were filled with 3 M KCl. The holding potential was −70 mV. Current responses were filtered (4-pole, Bessel, low pass) at 20 Hz (−3 db) and sampled at 100 Hz. OpusXpress 1.1 software (Molecular Devices) was used to capture and store current responses.
To measure antagonist activity at Orco, Agam\Orco was activated by the Orco agonist OLC12[34]. […] The current response to OLC12 in the presence of antagonist candidate was compared to the mean of the preceding two responses to OLC12 alone and presented as a percentage[34],[35]. This value was then normalized to the value obtained when the assay was run in the absence of antagonist candidate (sham).
During development of the training panel (Fig. 2, Tables S1 and S2), all compounds not previously known to be Orco antagonists were tested at a concentration of 3 mM. […] Concentration-inhibition curves were constructed for all compounds eliciting >20 percent inhibition at 3 mM. The same concentration and criteria were used during screening of predicted actives (Fig. 4D) and predicted inactives (Fig. 5C).
Clampfit 9.1 software (Molecular Devices) was used to perform initial analysis of electrophysiological data. Prism 7 (Graphpad) was used for curve fitting. Concentration-inhibition data were fit to the equation: I = Imax/(1 + (X/IC50)^n) where I represents the current response at a given concentration of inhibitor, X; Imax is the maximal response in the absence of inhibitor; IC50 is the concentration of inhibitor present that allows a half maximal response from OLC12; n is the apparent Hill coefficient.

Compound | IC50 [µM] | Orco antagonist activity | inhibition of Agam\Orco (OLC12 response) at 3 mM [%] | more potent than BMP [fold]
c1ccc(CNc2ccccc2)cc1 [n-benzylaniline] | 114 ± 12 |  |  | 
CC(C)c1cccc(C(C)(C)C)c1O [2-tert-butyl-6-isopropylphenol] | 50 ± 7 |  |  | 
CC(C)c1cccc(C(C)C)c1O [propofol, 2,6-diisopropylphenol, reference compound] | 47 ± 3 | has Orco antagonist activity |  | 
CCc1cccc(CC)c1O [2,6-diethylphenol] | 86 ± 17 |  |  | 
CCCCO [1-butanol] |  |  | ≤ 20 | 
CC(C)(C)c1ccccc1O [2-tert-butylphenol] | 32 ± 5 |  |  | 
Cc1ccc(O)c(C(C)(C)C)c1 [2-tert-butyl-4-methylphenol] |  |  |  | 2
CC(C)(C)c1ccc(O)c(C(C)(C)C)c1 [2,4-di-tert-butylphenol] | 15 ± 1 |  |  | 3
CC(C)c1ccc(CO)cc1 [4-isopropylbenzyl alcohol] | 605 ± 116 |  |  | 

same assay, conditions: 1 mM compound, 30 µM OLC12

Compound | inhibition of OLC12 activation
CCN(CC)C(=O)c1cccc(C)c1 [DEET, N,N-diethyl-m-toluamide, reference compound] | little or no inhibition

same assay, conditions: 3 mM compound, 30 µM OLC12

Compound | inhibition of Agam\Orco (OLC12 response) at 3 mM [%]
c1cscn1 [thiazole] | ≤ 20
CN(C)C [trimethylamine] | ≤ 20

same assay, conditions: Agam\Orco IC50 compared with 3I6MC

Compound | change in potency relative to 3I6MC
Cc1ccc(C(C)C)c(O)c1 [thymol] | slightly decreased potency

same assay, conditions: Agam\Orco IC50 compared with BMP

Compound | change in potency relative to BMP | loss of potency relative to BMP [fold]
CC(C)c1cccc(C(C)(C)C)c1O [2-tert-butyl-6-isopropylphenol] | no effect on potency | 
CCc1cccc(CC)c1O [2,6-diethylphenol] | slightly decreased potency | 
CC(C)(C)c1cccc(C(C)(C)C)c1O [2,6-di-tert-butylphenol] | slightly decreased potency | 
CC(C)(C)c1ccccc1O [2-tert-butylphenol] | slight increase in potency | 
Cc1cc(C)c(O)c(C)c1 [2,4,6-trimethylphenol] |  | 4.5

same assay, conditions: Table 2; inhibition of Agam\Orco activated by 30 µM OLC12; mean ± SEM (n = 3–9); read-out: IC50

Compound | IC50 [µM]
CC(C)(C)c1cccc(C(C)(C)C)c1O [2,6-di-tert-butylphenol] | 92 ± 9
CC(C)c1ccc(O)c(C(C)C)c1 [C00014, 2,4-diisopropylphenol] | 37 ± 7
Cc1ccc(O)c(C(C)(C)C)c1 [2-tert-butyl-4-methylphenol] | 25 ± 3
Cc1cc(C)c(O)c(C)c1 [2,4,6-trimethylphenol] | 212 ± 29

same assay, conditions: Table S1; training actives; Agam\Orco activated by 30 µM OLC12; mean ± SEM (n = 3-8); read-out: IC50

Compound | IC50 [µM]
O=CCCc1ccccc1 [hydrocinnamaldehyde] | 220 ± 24
COC(C)=O [methyl acetate] | 1640 ± 179
C=C(C)C1CC=C(C)[C@@H](O)C1 (single isomer, unassigned; (-)) [(-)-carveol] | 1030 ± 117
CC1(C)C(=O)[C@@]2(C)CC[C@H]1C2 [L-fenchone] | 1330 ± 105
SCCCCCCCCCS [1,9-nonanedithiol] | 1600 ± 299
COc1ccccc1O [guaiacol] | 4030 ± 654
CC(C=O)=Cc1ccccc1 [α-methyl cinnamaldehyde] | 187 ± 40
(−)-terpinen-4-ol | 678 ± 78
C=C(C)[C@@H]1CC[C@@H](C)C(=O)C1 [(+)-dihydrocarvone] | 1240 ± 219
CC12CCC(CC1)C(C)(C)O2 [eucalyptol] | 2960 ± 255
COc1nccnc1CC(C)C [2-isobutyl-3-methoxypyrazine] | 1020 ± 83
CC(C)CCOC(=O)Cc1ccccc1 [isoamyl phenylacetate] | 692 ± 66
C=C(C)[C@H]1CC=C(C)C(=O)C1 [(S)-carvone] | 1280 ± 92
Cc1cccc(O)c1 [m-cresol] | 1280 ± 238
C=C(C)C1CCC(C)C(O)C1 (single isomer, unassigned; (-)) [(-)-dihydrocarveol] | 818 ± 81
Cc1ccccc1 [toluene] | 1600 ± 243
COc1ccc(OC)cc1 [1,4-dimethoxybenzene] | 1100 ± 172
CCCCCCC1CCC(=O)O1 (centres unmarked) [γ-decalactone] | 948 ± 153
O=Cc1ccc(O)cc1 [4-hydroxybenzaldehyde] | 3620 ± 449
COc1ccccc1 [anisole] | 1170 ± 243
(+)-isopulegol | 1370 ± 285
CCCCCSC [amyl methyl sulfide] | 915 ± 77
O=Cc1ccc2c(c1)OCO2 [piperonal] | 2570 ± 244
CCCCCCOC(C)=O [hexyl acetate] | 841 ± 121

Compound | IC50 [µM]
C=CCc1ccc(OC)c(OC)c1 [methyl eugenol] | 525 ± 40
O=C(/C=C/c1ccccc1)OCc1ccccc1 [benzyl cinnamate] | 492 ± 64
CC1CCC(C(C)C)C(O)C1 (single isomer, unassigned; (-)) [(-)menthol] | 433 ± 78
CC1=NC(C)SC1C (centres unmarked) [2,5-dihydro-2,4,5-trimethylthiazoline] | 13000 ± 2400
CCN(CC)C(=O)c1cccc(C)c1 [DEET, N,N-diethyl-m-toluamide, reference compound] | 4480 ± 369
NCCc1c[nH]c2ccccc12 [tryptamine] | 48 ± 10
Cc1cc(C)c(NC(=O)c2cccs2)c(C)c1 [OX1L, N-mesityl-2-thiophenecarboxamide, reference compound] | 58 ± 10
CC1(O)CSC(C)(O)CS1 (centres unmarked) [2,5-dimethyl-2,5-dihydroxy-1,4-dithiane] | 4860 ± 1270
O=C1CCCCCCCCCC1 [cycloundecanone] | 366 ± 28
CC1CC[C@H](C(C)C)[C@@H](O)C1 (single isomer, unassigned; (+)) [(+)menthol] | 443 ± 72
CCCCc1ccc(NC(=O)CSc2nnc(-c3ccccn3)n2CC)cc1 [OLC15, N-(4-butylphenyl)-2-((4-Et-5-(2-pyridinyl)-4H-1,2,4-triazol-3-yl)thio)acetamide, reference compound] | 10 ± 2
CC(C)=CCC[C@@H](C)CC=O [(R)-(+)-citronellal] | 651 ± 58
CCCC=O [butyraldehyde] | 3000 ± 333
Brc1ccccc1 [bromobenzene] | 1160 ± 143
CCOC(=O)C=Cc1c(Cl)cccc1Cl [ethyl 2,6-dichlorocinamate] | 93 ± 11
Cc1ccc(CNC(=O)c2cccs2)cc1 [OX3a, N-(4-methylbenzyl)-2-thiophenecarboxamide, reference compound] | 202 ± 15
CCOC(=O)c1ccccc1 [ethyl benzoate] | 569 ± 44
Cc1ccc(C(C)C)c(O)c1 [thymol] | 61 ± 10
c1ccsc1 [thiophene] | 2670 ± 147
CC(C)OC(=O)C=Cc1ccccc1 [isopropyl cinnamate] | 153 ± 14
COc1ccccc1OC [veratrole] | 5420 ± 845
C#CC(O)CCCCC (centres unmarked) [1-octyn-3-ol] | 870 ± 60
CCCCC1Cc2ccccc2C1=O (centres unmarked) [2-butyl-1-indanone] | 289 ± 28

same assay, conditions: read-out: inhibition of Agam\Orco (OLC12 response) at 3 mM; 3 mM compound, 30 µM OLC12

Compound | inhibition at 3000 µM [%]
Cc1ccnc2ccccc12 [4-methylquinoline] | ≤ 20
N[C@@H](Cc1c[nH]cn1)C(=O)O [histidine] | ≤ 20
O=C1CCCC1 [cyclopentanone] | ≤ 20
N[C@@H](Cc1ccccc1)C(=O)O [phenylalanine] | ≤ 20
OC[C@H]1OC(O)[C@H](O)[C@@H](O)[C@@H]1O (some centres unmarked) [glucose] | ≤ 20
CCCCC/C=C\C/C=C\CCCCCCCC(=O)O [linoleic acid] | ≤ 20
CC1=CC(=O)CC(C)(C)C1 [isophorone] | ≤ 20
c1cnccn1 [pyrazine] | ≤ 20
CC1=CCC2CC1C2(C)C (stereo not drawn) [α-pinene] | ≤ 20
O=C(O)CCCCCBr [6-bromohexanoic acid] | ≤ 20
Oc1ccccc1O [catechol] | ≤ 20
N[C@@H](Cc1c[nH]c2ccccc12)C(=O)O [tryptophan] | ≤ 20
CCC(=O)C(C)=O [2,3-pentanedione] | ≤ 20
O=C(O)CCCCBr [5-bromovaleric acid] | ≤ 20
CCOC(=O)CC [ethyl propionate] | ≤ 20
